Test results reported in patent US7645752B2, “Sulfonyl substituted 1H-indoles as ligands for the 5-hydroxytryptamine receptors” (Wyeth LLC, priority 2006, dated 2010).
Structures can show the parent of a compound that is named as a salt.

Row | melting point | SMILES
1 | 225 to 228 °C | CCNCCc1cccc2[nH]cc(S(=O)(=O)c3ccccc3)c12 (as salt: hydrochloride) [Example 33, N-ethyl-N-{2-[3-(phenylsulfonyl)-1H-indol-4-yl]ethyl}amine]
2 | 178 °C | NCCc1ccc2c(S(=O)(=O)c3ccccc3)c[nH]c2c1 (as salt: hydrochloride) [Example 109, {2-[3-(phenylsulfonyl)-1H-indol-6-yl]ethyl}amine]
3 | 135 °C | CC(C)(C)CNCCc1cccc2[nH]cc(S(=O)(=O)c3ccccc3)c12 (as salt: hydrochloride) [Example 49, N-(2,2-dimethylpropyl)-N-{2-[3-(phenylsulfonyl)-1H-indol-4-yl]ethyl}amine]
4 | 185 to 187 °C | CC(C)NCCc1cccc2[nH]cc(S(=O)(=O)c3ccccc3)c12 (as salt: hydrochloride) [Example 35, N-{2-[3-(phenylsulfonyl)-1H-indol-4-yl]ethyl}propan-2-amine]
5 | 145 to 150 °C | O=S(=O)(c1ccccc1)c1c[nH]c2cccc(CCNC3CC3)c12 (as salt: hydrochloride) [Example 36, N-{2-[3-(phenylsulfonyl)-1H-indol-4-yl]ethyl}cyclopropanamine]
6 | 122 to 125 °C | NCCc1cccc2[nH]cc(S(=O)(=O)c3cccc(F)c3)c12 (as salt: hydrochloride) [Example 85, {2-[3-(3-fluorophenylsulfonyl)-1H-indol-4-yl]ethyl}amine]
7 | 118 to 120 °C | CN(C)CCc1ccc2c(S(=O)(=O)c3ccccc3)c[nH]c2c1 (as salt: hydrochloride) [Example 86, N,N-dimethyl-N-{2-[3-(phenylsulfonyl)-1H-indol-6-yl]ethyl}amine]
8 | 168 to 170 °C | CNCCc1cccc2[nH]cc(S(=O)(=O)c3ccccc3)c12 (as salt: hydrochloride) [Example 32, N-methyl-N-{2-[3-(phenylsulfonyl)-1H-indol-4-yl]ethyl}amine]
9 | 164 to 165 °C | O=S(=O)(c1ccccc1)c1c[nH]c2cccc(CCN3CCOCC3)c12 (as salt: hydrochloride) [Example 45, 4-(2-morpholin-4-ylethyl)-3-(phenylsulfonyl)-1H-indole]
10 | 122 to 126 °C | CN(C)CCc1cccc2[nH]cc(S(=O)(=O)c3ccccc3)c12 (as salt: hydrochloride) [Example 31, N,N-dimethyl-N-{2-[3-(phenylsulfonyl)-1H-indol-4-yl]ethyl}amine]
11 | 132 to 140 °C | CN(CCc1cccc2[nH]cc(S(=O)(=O)c3ccccc3)c12)C1CCCCC1 (as salt: hydrochloride) [Example 41, N-cyclohexyl-N-methyl-N-{2-[3-(phenylsulfonyl)-1H-indol-4-yl]ethyl}amine]
12 | 172 °C | O=S(=O)(c1ccccc1)c1c[nH]c2cccc(CCNCc3ccccc3)c12 (as salt: hydrochloride) [Example 47, N-benzyl-N-{2-[3-(phenylsulfonyl)-1H-indol-4-yl]ethyl}amine]
13 | 217 °C | CCCNCCc1cccc2[nH]cc(S(=O)(=O)c3ccccc3)c12 (as salt: hydrochloride) [Example 34, N-{2-[3-(phenylsulfonyl)-1H-indol-4-yl]ethyl}-N-propylamine]
14 | 145 to 150 °C | O=S(=O)(c1ccccc1)c1c[nH]c2cccc(CCN3CCCC3)c12 (as salt: hydrochloride) [Example 43, 3-(phenylsulfonyl)-4-(2-pyrrolidin-1-ylethyl)-1H-indole]

Second part, the compound before the results:

Row | SMILES | melting point
15 | NCCc1ccc2[nH]cc(S(=O)(=O)c3ccccc3)c2c1 (as salt: hydrochloride) [Example 12, {2-[3-(phenylsulfonyl)-1H-indol-5-yl]ethyl}amine] | 200 °C
16 | O=S(=O)(c1ccccc1)c1c[nH]c2ccc(CCN3CCCCC3)cc12 (as salt: hydrochloride) [Example 10, 3-(phenylsulfonyl)-5-(2-piperidin-1-ylethyl)-1H-indole] | 272 °C
17 | CCN(C)CCc1ccc2[nH]cc(S(=O)(=O)c3ccccc3)c2c1 (as salt: hydrochloride) [Example 7, N-ethyl-N-methyl-N-{2-[3-(phenylsulfonyl)-1H-indol-5-yl]ethyl}amine] | 203 °C
18 | O=S(=O)(c1ccccc1)c1c[nH]c2ccc(CCN3CCNCC3)cc12 (as salt: hydrochloride) [Example 13, 3-(phenylsulfonyl)-5-(2-piperazin-1-ylethyl)-1H-indole] | 220 °C
19 | CNCCc1cccc2c(S(=O)(=O)c3ccccc3)c[nH]c12 (as salt: hydrochloride) [Example 19, N-methyl-N-{2-[3-(phenylsulfonyl)-1H-indol-7-yl]ethyl}amine] | 187 to 188 °C
20 | O=S(=O)(c1ccccc1)c1c[nH]c2c(CCN3CCCCC3)cccc12 (as salt: hydrochloride) [Example 27, 3-(phenylsulfonyl)-7-(2-piperidin-1-ylethyl)-1H-indole] | 231 to 233 °C
21 | CN(C)CCc1ccc2[nH]cc(S(=O)(=O)c3ccccc3)c2c1 (as salt: hydrochloride) [Example 1, N,N-dimethyl-N-{2-[3-(phenylsulfonyl)-1H-indol-5-yl]ethyl}amine] | 251 °C
22 | O=S(=O)(c1ccccc1)c1c[nH]c2c(CCNC3CCCC3)cccc12 (as salt: hydrochloride) [Example 23, N-{2-[3-(phenylsulfonyl)-1H-indol-7-yl]ethyl}cyclopentanamine] | 255 to 256 °C (dec.)
23 | O=S(=O)(c1ccccc1)c1c[nH]c2cccc(CCNC3CCC3)c12 (as salt: hydrochloride) [Example 37, N-{2-[3-(phenylsulfonyl)-1H-indol-4-yl]ethyl}cyclobutanamine] | 95 to 103 °C
24 | O=S(=O)(c1ccccc1)c1c[nH]c2c(CCNC3CC3)cccc12 (as salt: hydrochloride) [Example 22, N-{2-[3-(phenylsulfonyl)-1H-indol-7-yl]ethyl}cyclopropanamine] | 213 to 216 °C (dec.)
25 | O=S(=O)(c1ccccc1)c1c[nH]c2ccc(CCNCc3ccccc3)cc12 (as salt: hydrochloride) [Example 6, N-benzyl-N-{2-[3-(phenylsulfonyl)-1H-indol-5-yl]ethyl}amine] | 215 to 220 °C
26 | CCN(CC)CCc1cccc2c(S(=O)(=O)c3ccccc3)c[nH]c12 (as salt: hydrochloride) [Example 25, N,N-diethyl-N-{2-[3-(phenylsulfonyl)-1H-indol-7-yl]ethyl}amine] | 165 to 166 °C (dec.)
27 | O=S(=O)(c1ccccc1)c1c[nH]c2cccc(CCNC3CCCCC3)c12 (as salt: hydrochloride) [Example 39, N-{2-[3-(phenylsulfonyl)-1H-indol-4-yl]ethyl}cyclohexanamine] | 241 °C
28 | O=S(=O)(c1ccccc1)c1c[nH]c2cccc(CCNCC3CCCO3)c12 (stereo not shown) (as salt: hydrochloride) [Example 51, N-{2-[3-(phenylsulfonyl)-1H-indol-4-yl]ethyl}-N-((tetrahydrofur-2-yl)methyl)amine] | 110 to 115 °C
29 | CC(C)CNCCc1cccc2[nH]cc(S(=O)(=O)c3ccccc3)c12 (as salt: hydrochloride) [Example 48, N-isobutyl-N-{2-[3-(phenylsulfonyl)-1H-indol-4-yl]ethyl}amine] | 220 °C
30 | CCCNCCc1ccc2[nH]cc(S(=O)(=O)c3ccccc3)c2c1 (as salt: hydrochloride) [Example 2, N-{2-[3-(phenylsulfonyl)-1H-indol-5-yl]ethyl}-N-propylamine] | 189 to 192 °C
31 | CC(C)NCCc1ccc2[nH]cc(S(=O)(=O)c3ccccc3)c2c1 (as salt: hydrochloride) [Example 3, N-{2-[3-(phenylsulfonyl)-1H-indol-5-yl]ethyl}propan-2-amine] | 263 °C
32 | O=S(=O)(c1ccccc1)c1c[nH]c2ccc(CCNC3CC3)cc12 (as salt: hydrochloride) [Example 4, N-{2-[3-(phenylsulfonyl)-1H-indol-5-yl]ethyl}cyclopropanamine] | 205 to 208 °C
33 | CCCNCCc1cccc2c(S(=O)(=O)c3ccccc3)c[nH]c12 (as salt: hydrochloride) [Example 20, N-{2-[3-(phenylsulfonyl)-1H-indol-7-yl]ethyl}-N-propylamine] | 260 to 262 °C
34 | CCN(CC)CCc1ccc2[nH]cc(S(=O)(=O)c3ccccc3)c2c1 (as salt: hydrochloride) [Example 8, N,N-diethyl-N-{2-[3-(phenylsulfonyl)-1H-indol-5-yl]ethyl}amine] | 193 to 195 °C
35 | O=S(=O)(c1ccccc1)c1c[nH]c2c(CCN3CCOCC3)cccc12 (as salt: hydrochloride) [Example 28, 7-(2-morpholin-4-ylethyl)-3-(phenylsulfonyl)-1H-indole] | 246 to 248 °C (dec.)
36 | NCCc1cccc2[nH]cc(S(=O)(=O)c3ccccc3)c12 (as salt: hydrochloride) [Example 61, {2-[3-(phenylsulfonyl)-1H-indol-4-yl]ethyl}amine] | 130 to 134 °C
37 | CCN(CC)CCc1cccc2[nH]cc(S(=O)(=O)c3ccccc3)c12 (as salt: hydrochloride) [Example 42, N,N-diethyl-N-{2-[3-(phenylsulfonyl)-1H-indol-4-yl]ethyl}amine] | 77 to 83 °C
38 | O=S(=O)(c1ccccc1)c1c[nH]c2cccc(CCN3CCCCC3)c12 (as salt: hydrochloride) [Example 44, 3-(phenylsulfonyl)-4-(2-piperidin-1-ylethyl)-1H-indole] | 200 to 205 °C
39 | CC(C)NCCc1cccc2c(S(=O)(=O)c3ccccc3)c[nH]c12 (as salt: hydrochloride) [Example 21, N-{2-[3-(phenylsulfonyl)-1H-indol-7-yl]ethyl}propan-2-amine] | 291 to 293 °C (dec.)
40 | O=S(=O)(c1ccccc1)c1c[nH]c2c(CCN3CCNCC3)cccc12 (as salt: hydrochloride) [Example 30, 3-(phenylsulfonyl)-7-(2-piperazin-1-ylethyl)-1H-indole] | 190 °C
